Data from ChEMBL document CHEMBL3045816, “Synthesis and antimicrobial screening of 5-(benzylidene)-3-phenylthiazolidin-4-one derivatives incorporating thiazole ring” (Med Chem Res, 2013).
Values after ≈ are worked out from the molar mass of the structure shown.

Tests used:
[1] = tested on: Aspergillus clavatus; assay: Antimicrobial activity against Aspergillus clavatus MTCC 1323 assessed as growth inhibition after 48 hr; assay type: functional; details: MTCC 1323, 48 h
[2] = tested on: Aspergillus niger; assay: Antimicrobial activity against Aspergillus niger MTCC 282 assessed as growth inhibition after 48 hr; assay type: functional; details: MTCC 282, 48 h
[3] = tested on: Candida albicans; assay: Antimicrobial activity against Candida albicans MTCC 227 assessed as growth inhibition after 48 hr; assay type: functional; details: MTCC 227, 48 h
[4] = tested on: Streptococcus pyogenes; assay: Antimicrobial activity against Streptococcus pyogenes MTCC 442 assessed as growth inhibition after 24 hr by turbidimetric method; assay type: functional; details: MTCC 442, 24 h
[5] = tested on: Staphylococcus aureus; assay: Antimicrobial activity against Staphylococcus aureus MTCC 96 assessed as growth inhibition after 24 hr by turbidimetric method; assay type: functional; details: MTCC 96, 24 h
[6] = tested on: Pseudomonas aeruginosa; assay: Antimicrobial activity against Pseudomonas aeruginosa MTCC 1688 assessed as growth inhibition after 24 hr by turbidimetric method; assay type: functional; details: MTCC 1688, 24 h
[7] = tested on: Escherichia coli; assay: Antimicrobial activity against Escherichia coli MTCC 443 assessed as growth inhibition after 24 hr by turbidimetric method; assay type: functional; details: MTCC 443, 24 h
[8] = tested on: HepG2; assay: Cytotoxicity against Homo sapiens (human) HepG2 cells by SRB assay; assay type: cell-based
[9] = tested on: HL-60; assay: Cytotoxicity against Homo sapiens (human) HL60 cells by SRB assay; assay type: cell-based
[10] = tested on: A549; assay: Cytotoxicity against Homo sapiens (human) A549 cells by SRB assay; assay type: cell-based

Compound	MIC [1] [µg/mL]	MIC [2] [µg/mL]	MIC [3] [µg/mL]	MIC [4] [µg/mL]	MIC [5] [µg/mL]	MIC [6] [µg/mL]	MIC [7] [µg/mL]	Activity [8]	Activity [9]	Activity [10]
COc1ccc(C(=O)Nc2nc(C)c(C(=O)N/N=C3\S/C(=C\c4ccc(F)cc4)C(=O)N3c3ccccc3)s2)cc1	500 (≈ 851 µM)	250 (≈ 425 µM)	500 (≈ 851 µM)	250 (≈ 425 µM)	500 (≈ 851 µM)	250 (≈ 425 µM)	500 (≈ 851 µM)			
COc1ccc(C(=O)Nc2nc(C)c(C(=O)N/N=C3\S/C(=C\c4ccc(O)cc4)C(=O)N3c3ccccc3)s2)cc1	250 (≈ 427 µM)	100 (≈ 171 µM)	250 (≈ 427 µM)	250 (≈ 427 µM)	50 (≈ 85.4 µM)	250 (≈ 427 µM)	50 (≈ 85.4 µM)	Non-toxic	Non-toxic	Non-toxic
COc1ccc(C(=O)Nc2nc(C)c(C(=O)N/N=C3\S/C(=C\c4cccc(C)c4)C(=O)N3c3ccccc3)s2)cc1	250 (≈ 428 µM)	250 (≈ 428 µM)	250 (≈ 428 µM)	100 (≈ 171 µM)	250 (≈ 428 µM)	250 (≈ 428 µM)	100 (≈ 171 µM)			
COc1ccc(C(=O)Nc2nc(C)c(C(=O)N/N=C3\S/C(=C\c4ccccc4OC)C(=O)N3c3ccccc3)s2)cc1	100 (≈ 167 µM)	100 (≈ 167 µM)	100 (≈ 167 µM)	100 (≈ 167 µM)	100 (≈ 167 µM)	100 (≈ 167 µM)	250 (≈ 417 µM)	Non-toxic	Non-toxic	Non-toxic
COc1ccc(/C=C2\S/C(=N\NC(=O)c3sc(NC(=O)c4ccc(OC)cc4)nc3C)N(c3ccccc3)C2=O)cc1	50 (≈ 83.4 µM)	100 (≈ 167 µM)	50 (≈ 83.4 µM)	50 (≈ 83.4 µM)	100 (≈ 167 µM)	50 (≈ 83.4 µM)	25 (≈ 41.7 µM)	Non-toxic	Non-toxic	Non-toxic
COc1ccc(C(=O)Nc2nc(C)c(C(=O)N/N=C3\S/C(=C\c4ccccc4Cl)C(=O)N3c3ccccc3)s2)cc1	250 (≈ 414 µM)	250 (≈ 414 µM)	500 (≈ 828 µM)	500 (≈ 828 µM)	250 (≈ 414 µM)	250 (≈ 414 µM)	250 (≈ 414 µM)			
COc1ccc(C(=O)Nc2nc(C)c(C(=O)N/N=C3\S/C(=C\c4ccc(Cl)cc4)C(=O)N3c3ccccc3)s2)cc1	500 (≈ 828 µM)	500 (≈ 828 µM)	500 (≈ 828 µM)	500 (≈ 828 µM)	250 (≈ 414 µM)	500 (≈ 828 µM)	500 (≈ 828 µM)			
COc1ccc(C(=O)Nc2nc(C)c(C(=O)N/N=C3\S/C(=C\c4ccccc4[N+](=O)[O-])C(=O)N3c3ccccc3)s2)cc1	250 (≈ 407 µM)	250 (≈ 407 µM)	1000 (≈ 1630 µM)	250 (≈ 407 µM)	500 (≈ 813 µM)	250 (≈ 407 µM)	500 (≈ 813 µM)			
COc1ccc(C(=O)Nc2nc(C)c(C(=O)NN)s2)cc1	1000 (≈ 3260 µM)	> 1000	1000 (≈ 3260 µM)	1000 (≈ 3260 µM)	> 1000	1000 (≈ 3260 µM)	> 1000			
O=C(O)c1cn(C2CC2)c2cc(N3CCNCC3)c(F)cc2c1=O [CIPROFLOXACIN]				50 (≈ 151 µM)	50 (≈ 151 µM)		25 (≈ 75.4 µM)			
COC1=CC(=O)C[C@@H](C)[C@]12Oc1c(Cl)c(OC)cc(OC)c1C2=O [GRISEOFULVIN]	100 (≈ 283 µM)	100 (≈ 283 µM)	500 (≈ 1420 µM)							

Continued, in another order:

MIC [1] [µg/mL]	MIC [2] [µg/mL]	MIC [3] [µg/mL]	MIC [4] [µg/mL]	MIC [5] [µg/mL]	MIC [6] [µg/mL]	MIC [7] [µg/mL]	Compound	Activity [8]	Activity [9]	Activity [10]
500 (≈ 813 µM)	500 (≈ 813 µM)	500 (≈ 813 µM)	500 (≈ 813 µM)	500 (≈ 813 µM)	500 (≈ 813 µM)	250 (≈ 407 µM)	COc1ccc(C(=O)Nc2nc(C)c(C(=O)N/N=C3\S/C(=C\c4ccc([N+](=O)[O-])cc4)C(=O)N3c3ccccc3)s2)cc1			
100 (≈ 171 µM)	100 (≈ 171 µM)	100 (≈ 171 µM)	100 (≈ 171 µM)	250 (≈ 428 µM)	25 (≈ 42.8 µM)	25 (≈ 42.8 µM)	COc1ccc(C(=O)Nc2nc(C)c(C(=O)N/N=C3\S/C(=C\c4ccccc4C)C(=O)N3c3ccccc3)s2)cc1	Non-toxic	Non-toxic	Non-toxic
25 (≈ 42.8 µM)	25 (≈ 42.8 µM)	100 (≈ 171 µM)	50 (≈ 85.7 µM)	50 (≈ 85.7 µM)	50 (≈ 85.7 µM)	12.5 (≈ 21.4 µM)	COc1ccc(C(=O)Nc2nc(C)c(C(=O)N/N=C3\S/C(=C\c4ccc(C)cc4)C(=O)N3c3ccccc3)s2)cc1	Non-toxic	Non-toxic	Non-toxic
250 (≈ 417 µM)	250 (≈ 417 µM)	500 (≈ 834 µM)	250 (≈ 417 µM)	250 (≈ 417 µM)	250 (≈ 417 µM)	50 (≈ 83.4 µM)	COc1ccc(C(=O)Nc2nc(C)c(C(=O)N/N=C3\S/C(=C\c4cccc(OC)c4)C(=O)N3c3ccccc3)s2)cc1			
> 1000	1000 (≈ 2260 µM)	1000 (≈ 2260 µM)	500 (≈ 1130 µM)	500 (≈ 1130 µM)	500 (≈ 1130 µM)	500 (≈ 1130 µM)	COc1ccc(C(=O)Nc2nc(C)c(C(=O)NNC(=S)Nc3ccccc3)s2)cc1			
250 (≈ 519 µM)	1000 (≈ 2080 µM)	1000 (≈ 2080 µM)	500 (≈ 1040 µM)	500 (≈ 1040 µM)	500 (≈ 1040 µM)	250 (≈ 519 µM)	COc1ccc(C(=O)Nc2nc(C)c(C(=O)N/N=C3\SCC(=O)N3c3ccccc3)s2)cc1			
500 (≈ 878 µM)	500 (≈ 878 µM)	500 (≈ 878 µM)	250 (≈ 439 µM)	500 (≈ 878 µM)	500 (≈ 878 µM)	250 (≈ 439 µM)	COc1ccc(C(=O)Nc2nc(C)c(C(=O)N/N=C3\S/C(=C\c4ccccc4)C(=O)N3c3ccccc3)s2)cc1			
250 (≈ 427 µM)	250 (≈ 427 µM)	500 (≈ 854 µM)	100 (≈ 171 µM)	250 (≈ 427 µM)	250 (≈ 427 µM)	100 (≈ 171 µM)	COc1ccc(C(=O)Nc2nc(C)c(C(=O)N/N=C3\S/C(=C\c4ccccc4O)C(=O)N3c3ccccc3)s2)cc1			
100 (≈ 171 µM)	250 (≈ 427 µM)	500 (≈ 854 µM)	250 (≈ 427 µM)	100 (≈ 171 µM)	100 (≈ 171 µM)	100 (≈ 171 µM)	COc1ccc(C(=O)Nc2nc(C)c(C(=O)N/N=C3\S/C(=C\c4cccc(O)c4)C(=O)N3c3ccccc3)s2)cc1			
